# Data as given in patent US12077503B2, “Substituted cyclic amides and their use as herbicides” (FMC CORPORATION, priority 2015, dated 2024).
# Assays:
# Format in all cases: in vivo
# [1] = system: corn (Zea mays); assay: Test G Pre-Emergence Protocol; details: Zea mays, pre-emergence, 312 h, evaluated after 13 days; for plant injury at 15.625 g/ha: 15.625 g ai/ha; for plant injury at 15.625 g/ha / plant injury at 250 g/ha: read-out: Corn damage rating (100=total damage to plant; 0=no damage to plant); for plant injury at 62.5 g/ha: 62.5 g ai/ha, 100=total damage to plant, 0=no damage to plant, read-out: plant damage rating, Corn; for plant injury at 250 g/ha: 250 g ai/ha
# Procedure, shortened: (§1)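 Herbicidal effect was rated 13 days post-application on a scale where 100 equals total damage. Spraying took place the day after sowing, using 15.625, 62.5 or 250 g/ha of compound in a 50:50 acetone/water solution with 0.5% Tween 20.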
# [2] = system: ivy-leaved morning glory (Ipomoea hederacea); assay: Test G Pre-Emergence Protocol; details: Ipomoea, pre-emergence, 312 h, evaluated after 13 days; for pest or weed control at 15.625 g/ha: 15.625 g ai/ha, read-out: Morning-glory, Ivy-leaved damage rating (100=total damage to plant; 0=no damage to plant); for pest or weed control at 62.5 g/ha: 62.5 g ai/ha, 100=total damage to plant, 0=no damage to plant, read-out: plant damage rating, Morningglory, Ivy-leaved; for pest or weed control at 250 g/ha: 250 g ai/ha, read-out: Morningglory, Ivy-leaved damage rating (100=total damage to plant; 0=no damage to plant)
# Procedure, shortened: as §1
# [3] = system: giant foxtail (Setaria faberi); assay: Test G Pre-Emergence Protocol; details: Setaria faberi, pre-emergence, 312 h, evaluated after 13 days; for pest or weed control at 15.625 g/ha: 15.625 g ai/ha; for pest or weed control at 15.625 g/ha / pest or weed control at 250 g/ha: read-out: Foxtail, Giant damage rating (100=total damage to plant; 0=no damage to plant); for pest or weed control at 62.5 g/ha: 62.5 g ai/ha, 100=total damage to plant, 0=no damage to plant, read-out: plant damage rating, Foxtail, Giant; for pest or weed control at 250 g/ha: 250 g ai/ha
# Procedure, shortened: as §1
# [4] = system: redroot pigweed (Amaranthus retroflexus); assay: Test G Pre-Emergence Protocol; details: Amaranthus retroflexus, pre-emergence, 312 h, evaluated after 13 days; for pest or weed control at 15.625 g/ha: 15.625 g ai/ha; for pest or weed control at 15.625 g/ha / pest or weed control at 250 g/ha: read-out: Pigweed, Redroot damage rating (100=total damage to plant; 0=no damage to plant); for pest or weed control at 62.5 g/ha: 62.5 g ai/ha, 100=total damage to plant, 0=no damage to plant, read-out: plant damage rating, Pigweed, Redroot; for pest or weed control at 250 g/ha: 250 g ai/ha
# Procedure, shortened: as §1
# [5] = system: velvetleaf (Abutilon theophrasti); assay: Test G Pre-Emergence Protocol; details: Abutilon theophrasti, pre-emergence, 312 h, evaluated after 13 days; for pest or weed control at 15.625 g/ha: 15.625 g ai/ha; for pest or weed control at 15.625 g/ha / pest or weed control at 250 g/ha: read-out: Velvetleaf damage rating (100=total damage to plant; 0=no damage to plant); for pest or weed control at 62.5 g/ha: 62.5 g ai/ha, 100=total damage to plant, 0=no damage to plant, read-out: plant damage rating, Velvetleaf; for pest or weed control at 250 g/ha: 250 g ai/ha
# Procedure, shortened: as §1
# [6] = system: barnyardgrass (Echinochloa crus-galli); assay: Test G Pre-Emergence Protocol; details: Echinochloa crus-galli, pre-emergence, 312 h, evaluated after 13 days; for pest or weed control at 15.625 g/ha: 15.625 g ai/ha, read-out: Barnyard grass damage rating (100=total damage to plant; 0=no damage to plant); for pest or weed control at 62.5 g/ha: 62.5 g ai/ha, 100=total damage to plant, 0=no damage to plant, read-out: plant damage rating, Barnyardgrass; for pest or weed control at 250 g/ha: 250 g ai/ha, read-out: Barnyardgrass damage rating (100=total damage to plant; 0=no damage to plant)
# Procedure, shortened: as §1
# [7] = system: corn (Zea mays); assay: Test G Post-Emergence Protocol; details: Zea mays, post-emergence, 312 h; for plant injury at 15.625 g/ha: 15.625 g ai/ha, evaluated after 13 days (100=total damage to plant; 0=no damage to plant), read-out: Corn damage rating; for plant injury at 62.5 g/ha: 62.5 g ai/ha, read-out: Corn damage rating (100=total damage to plant; 0=no damage to plant); for plant injury at 62.5 g/ha / plant injury at 250 g/ha: evaluated after 13 days; for plant injury at 250 g/ha: 250 g ai/ha, read-out: damage to plant, Corn (100=total damage to plant; 0=no damage to plant)
# Procedure, shortened: (§2)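 Scores run 0 (no damage) to 100 (total damage) and were taken 13 days after spraying. Plants had been raised in pots for 8 days under glasshouse control (24/16 °C, 14 h photoperiod, 65% humidity) and then treated at 15.625, 62.5 or 250 g/ha.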
# [8] = system: ivy-leaved morning glory (Ipomoea hederacea); assay: Test G Post-Emergence Protocol; details: Ipomoea, post-emergence, 312 h; for pest or weed control at 15.625 g/ha: 15.625 g ai/ha, evaluated after 13 days (100=total damage to plant; 0=no damage to plant), read-out: Morningglory, Ivy-leaved damage rating; for pest or weed control at 62.5 g/ha: 62.5 g ai/ha, read-out: Morningglory, Ivy-leaved damage rating (100=total damage to plant; 0=no damage to plant); for pest or weed control at 62.5 g/ha / pest or weed control at 250 g/ha: evaluated after 13 days; for pest or weed control at 250 g/ha: 250 g ai/ha, read-out: damage to plant, Morningglory, Ivy-leaved (100=total damage to plant; 0=no damage to plant)
# Procedure, shortened: as §2
# [9] = system: giant foxtail (Setaria faberi); assay: Test G Post-Emergence Protocol; details: Setaria faberi, post-emergence, 312 h; for pest or weed control at 15.625 g/ha: 15.625 g ai/ha, evaluated after 13 days (100=total damage to plant; 0=no damage to plant), read-out: Foxtail, Giant damage rating; for pest or weed control at 62.5 g/ha: 62.5 g ai/ha, read-out: Foxtail, Giant damage rating (100=total damage to plant; 0=no damage to plant); for pest or weed control at 62.5 g/ha / pest or weed control at 250 g/ha: evaluated after 13 days; for pest or weed control at 250 g/ha: 250 g ai/ha, read-out: damage to plant, Foxtail, Giant (100=total damage to plant; 0=no damage to plant)
# Procedure, shortened: as §2
# [10] = system: redroot pigweed (Amaranthus retroflexus); assay: Test G Post-Emergence Protocol; details: Amaranthus retroflexus, post-emergence, 312 h; for pest or weed control at 15.625 g/ha: 15.625 g ai/ha, evaluated after 13 days (100=total damage to plant; 0=no damage to plant), read-out: Pigweed, Redroot damage rating; for pest or weed control at 62.5 g/ha: 62.5 g ai/ha, read-out: Pigweed, Redroot damage rating (100=total damage to plant; 0=no damage to plant); for pest or weed control at 62.5 g/ha / pest or weed control at 250 g/ha: evaluated after 13 days; for pest or weed control at 250 g/ha: 250 g ai/ha, read-out: damage to plant, Pigweed, Redroot (100=total damage to plant; 0=no damage to plant)
# Procedure, shortened: as §2
# [11] = system: velvetleaf (Abutilon theophrasti); assay: Test G Post-Emergence Protocol; details: Abutilon theophrasti, post-emergence, 312 h; for pest or weed control at 15.625 g/ha: 15.625 g ai/ha, evaluated after 13 days (100=total damage to plant; 0=no damage to plant), read-out: Velvetleaf damage rating; for pest or weed control at 62.5 g/ha: 62.5 g ai/ha, read-out: Velvetleaf damage rating (100=total damage to plant; 0=no damage to plant); for pest or weed control at 62.5 g/ha / pest or weed control at 250 g/ha: evaluated after 13 days; for pest or weed control at 250 g/ha: 250 g ai/ha, read-out: damage to plant, Velvetleaf (100=total damage to plant; 0=no damage to plant)
# Procedure, shortened: as §2
# [12] = system: barnyardgrass (Echinochloa crus-galli); assay: Test G Post-Emergence Protocol; details: Echinochloa crus-galli, post-emergence, 312 h; for pest or weed control at 15.625 g/ha: 15.625 g ai/ha, evaluated after 13 days (100=total damage to plant; 0=no damage to plant), read-out: Barnyardgrass damage rating; for pest or weed control at 62.5 g/ha: 62.5 g ai/ha, read-out: Barnyardgrass damage rating (100=total damage to plant; 0=no damage to plant); for pest or weed control at 62.5 g/ha / pest or weed control at 250 g/ha: evaluated after 13 days; for pest or weed control at 250 g/ha: 250 g ai/ha, read-out: damage to plant, Barnyardgrass (100=total damage to plant; 0=no damage to plant)
# Procedure, shortened: as §2
Compound,plant injury at 15.625 g/ha [1],plant injury at 62.5 g/ha [1],plant injury at 250 g/ha [1],pest or weed control at 15.625 g/ha [2],pest or weed control at 62.5 g/ha [2],pest or weed control at 250 g/ha [2],pest or weed control at 15.625 g/ha [3],pest or weed control at 62.5 g/ha [3],pest or weed control at 250 g/ha [3],pest or weed control at 15.625 g/ha [4],pest or weed control at 62.5 g/ha [4],pest or weed control at 250 g/ha [4],pest or weed control at 15.625 g/ha [5],pest or weed control at 62.5 g/ha [5],pest or weed control at 250 g/ha [5],pest or weed control at 15.625 g/ha [6],pest or weed control at 62.5 g/ha [6],pest or weed control at 250 g/ha [6],plant injury at 15.625 g/ha [7],plant injury at 62.5 g/ha [7],also measured
CN1C[C@@H](c2ccc(C(F)(F)F)cc2)[C@H](C(=O)Nc2cccnc2Cl)C1=O (racemic) [Compound 1517],0%,0%,20%,0%,0%,0%,30%,70%,80%,0%,0%,60%,0%,0%,0%,0%,70%,90%,0%,10%,plant injury at 250 g/ha [7]: 80%; pest or weed control at 15.625 g/ha [8]: 20%; pest or weed control at 62.5 g/ha [8]: 30%; pest or weed control at 250 g/ha [8]: 70%; pest or weed control at 15.625 g/ha [9]: 20%; pest or weed control at 62.5 g/ha [9]: 60%; pest or weed control at 250 g/ha [9]: 60%; pest or weed control at 15.625 g/ha [10]: 0%; pest or weed control at 62.5 g/ha [10]: 0%; pest or weed control at 250 g/ha [10]: 20%; pest or weed control at 15.625 g/ha [11]: 0%; pest or weed control at 62.5 g/ha [11]: 10%; pest or weed control at 250 g/ha [11]: 20%; pest or weed control at 15.625 g/ha [12]: 0%; pest or weed control at 62.5 g/ha [12]: 50%; pest or weed control at 250 g/ha [12]: 70%
CN1C[C@@H](c2ccc(C(F)(F)F)cc2)[C@H](C(=O)Nc2cc(Cl)nc(Cl)c2)C1=O (racemic) [Compound 1519],0%,0%,0%,0%,0%,0%,0%,0%,0%,0%,0%,0%,0%,0%,0%,0%,0%,0%,10%,10%,plant injury at 250 g/ha [7]: 0%; pest or weed control at 15.625 g/ha [8]: 0%; pest or weed control at 62.5 g/ha [8]: 0%; pest or weed control at 250 g/ha [8]: 0%; pest or weed control at 15.625 g/ha [9]: 0%; pest or weed control at 62.5 g/ha [9]: 0%; pest or weed control at 250 g/ha [9]: 0%; pest or weed control at 15.625 g/ha [10]: 0%; pest or weed control at 62.5 g/ha [10]: 0%; pest or weed control at 250 g/ha [10]: 0%; pest or weed control at 15.625 g/ha [11]: 0%; pest or weed control at 62.5 g/ha [11]: 0%; pest or weed control at 250 g/ha [11]: 0%; pest or weed control at 15.625 g/ha [12]: 0%; pest or weed control at 62.5 g/ha [12]: 0%; pest or weed control at 250 g/ha [12]: 0%
CC(C)c1cc(NC(=O)[C@@H]2C(=O)N(C)C[C@H]2c2ccc(C(F)(F)F)cc2)[nH]n1 (racemic) [Compound 1522],0%,0%,0%,0%,0%,0%,0%,0%,0%,0%,0%,0%,0%,0%,0%,0%,0%,0%,0%,10%,plant injury at 250 g/ha [7]: 10%; pest or weed control at 15.625 g/ha [8]: 0%; pest or weed control at 62.5 g/ha [8]: 0%; pest or weed control at 250 g/ha [8]: 0%; pest or weed control at 15.625 g/ha [9]: 0%; pest or weed control at 62.5 g/ha [9]: 0%; pest or weed control at 250 g/ha [9]: 0%; pest or weed control at 15.625 g/ha [10]: 0%; pest or weed control at 62.5 g/ha [10]: 0%; pest or weed control at 250 g/ha [10]: 0%; pest or weed control at 15.625 g/ha [11]: 0%; pest or weed control at 62.5 g/ha [11]: 0%; pest or weed control at 250 g/ha [11]: 0%; pest or weed control at 15.625 g/ha [12]: 0%; pest or weed control at 62.5 g/ha [12]: 0%; pest or weed control at 250 g/ha [12]: 0%
